pIC50: −log10 of the molar value.
How the values were obtained:
BCL6 [1] = target: T1, BCL6 (Homo sapiens (Human), UniProt P41182); assay: BCL6 TR-FRET assay (BCL6-Avitag-Biotin / BCoR-Cy5 peptide); format: binding; settings: for IC50: class symbols A-D, read-out: IC50 (nM)***; for pIC50: read-out: IC50
Experimental: Protein Synthesis. BCL6 protein was expressed by transforming Invitrogen One Shot cells with GS63525 pET24a-His-SUMO-TEV-BCLm-Avitag plasmid following manufacturer's instructions. In addition, biotin at a final concentration of 50 μM, and IPTG at a final concentration of 1 mM was added to the culture and incubated at room temperature shaking overnight.
Assay buffer A: 50 mM HEPES pH 7.5, 125 mM NaCl, 0.01% TritonX.
Assay buffer B (made fresh): buffer A+1 mM Glutathione (or 0.5 mM DTT).
Assay buffer C (made fresh): buffer B+0.03% BSA.
Black Proxy plates, 96 well.
15 μl final reaction volumes (BCoR-Cy5 100 nM, SA-Eu 2 nM, BCL6-avitag 2 nM).
[…] BCL6-Avitag-Biotin stock: made fresh by adding 2 μl of BCL6-Avitag-Biotin to 31.5 ml Buffer C.
1 mM BCoR-Cy5 peptide (LifeTein) stock in Dimethylformamide (DMF).
300 nM BCoR-Cy5 working stock: made fresh by adding 4.5 μl of the 1 mM BCoR-Cy5 peptide stock to 15 ml Buffer B.
10 μM Eu-Streptavidin (Lance Eu-W1024 Streptavidin, PerkinElmer) stock solution.
6 nM Eu-Streptavidin working stock: made fresh by adding 9 μl Eu-Streptavidin stock solution to 15 ml Buffer A.
Compounds were diluted to 10 mM. Twenty microliters of DMSO was aliquoted to each well of the microtiter plates. From the 10 mM compound stock, 8.7 ul was aliquoted to the 20 ul DMSO and 3-fold serial dilutions (12 pt 3-0.01 uM tritration plate, 96 well, 100% DMSO) performed. Five ul from the titration plate wells was aliquoted to 45 ul Buff C (Intermediate dilution plates, 10% DMSO).
Spot 1.5 μl compound titrations to 384-well plates in duplicate, and spot 3.5 μl [8.5 nM] BCL6-bio protein to each well. The plate was mix briefly, centrifuged, and incubated for 30 minutes at room temperature.
Mix 14 mls of BCoR-Cy5 [300 nM] and 14 mls [6 nM] Eu-Streptavidin. Spot 10 μl BCoR-Cy5/SA-Eu (1:1) mix to each well. The plates were incubated for 2 hours and then read on an Envision plate reader.

BCL6 [2] = target: T1, BCL6; assay: Immunofluorescence high content imaging of BCL6 degradation in T47D cells; format: cell-based; settings: for Dmax: T47D; for DC50: class symbols A-D, read-out: EC50 (nM)*
Outline: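 Seed T47D in RPMI1640-10% FBS to reach ~70-90% confluence at endpoint; add degrader next day (11-point 3-fold series, top 0.1 or 1 μM final) for 3 days. Then fix, permeabilize, stain BCL6 with nuclear Hoechst, and image.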

SMILES | pIC50 (BCL6 [1]) | Dmax (BCL6 [2]) | further results
CNC(=O)COc1cc2cc(Nc3nc(N4CCC(OCCN5CCN(Cc6ccc(C#Cc7ccc8c(c7)CN(C7CCC(=O)NC7=O)C8=O)cc6)CC5)CC4)ncc3Cl)ccc2n(C)c1=O (centres unmarked) [compound 119, 2-((6-((5-chloro-2-(4-(2-(4-(4-((2-(2,6-dioxopiperidin-3-yl)-1-oxoisoindolin-5-yl)ethynyl)benzyl)piperazin-1-yl)ethoxy)piperidin-1-yl)pyrimidin-4-yl)amino)-1-methyl-2-oxo-1,2-dihydroquinolin-3-yl)oxy)-N-methylacetamide] |  |  | IC50 (BCL6 [1]): < 10 nM; Dmax (BCL6 [2]; maximum, class symbols A-C): < 50%; DC50 (BCL6 [2]): 10 to 50 nM
CNC(=O)COc1cc2cc(Nc3nc(N4CCC5(CC4)CC(OC4CCN(c6cccc(C(=O)NC7CCC(=O)NC7=O)c6F)CC4)C5)ncc3Cl)ccc2n(C(C)C)c1=O (centres unmarked) [compound 453, 3-[4-({7-[5-chloro-4-({3-[(methylcarbamoyl)methoxy]-2-oxo-1-(propan-2-yl)-1,2-dihydroquinolin-6-yl}amino)pyrimidin-2-yl]-7-azaspiro[3.5]nonan-2-yl}oxy)piperidin-1-yl]-N-(2,6-dioxopiperidin-3-yl)-2-fluorobenzamide] | 7.30 to 8.00 | ≥ 70% | 
Cn1c(=O)c(-c2cnoc2)cc2cc(Nc3nc(N4CCC(CN5CCN(c6ccc7c(c6)C(=O)N(C6CCC(=O)NC6=O)C7=O)CC5)CC4)ncc3Cl)ccc21 (centres unmarked) [compound 235, 5-(4-((1-(5-chloro-4-((3-(isoxazol-4-yl)-1-methyl-2-oxo-1,2-dihydroquinolin-6-yl)amino)pyrimidin-2-yl)piperidin-4-yl)methyl)piperazin-1-yl)-2-(2,6-dioxopiperidin-3-yl)isoindoline-1,3-dione] |  |  | EC50 (BCL6 [1]): > 100 nM; IC50 (BCL6 [2]): ≥ 100 nM
Cn1c(=O)n(CCC(C)(C)O)c2cc(Nc3nc(N4CCC(CN5CCN(c6ccc7c(c6)C(=O)N(C6CCC(=O)NC6=O)C7=O)CC5)CC4)ncc3Cl)ccc21 (centres unmarked) [compound 149, 5-(4-((1-(5-chloro-4-((3-(3-hydroxy-3-methylbutyl)-1-methyl-2-oxo-2,3-dihydro-1H-benzo[d]imidazol-5-yl)amino)pyrimidin-2-yl)piperidin-4-yl)methyl)piperazin-1-yl)-2-(2,6-dioxopiperidin-3-yl)isoindoline-1,3-dione] |  |  | IC50 (BCL6 [1]): ≥ 100 nM; DC50 (BCL6 [2]): > 100 nM
CNC(=O)COc1cc2cc(Nc3nc(N4CCN(CC5CCN(c6ccc7c(c6)C(=O)N(C6CCC(=O)NC6=O)C7=O)CC5)C(=O)C4)ncc3Cl)ccc2n(C)c1=O (centres unmarked) [compound 201, 2-((6-((5-chloro-2-(4-((1-(2-(2,6-dioxopiperidin-3-yl)-1,3-dioxoisoindolin-5-yl)piperidin-4-yl)methyl)-3-oxopiperazin-1-yl)pyrimidin-4-yl)amino)-1-methyl-2-oxo-1,2-dihydroquinolin-3-yl)oxy)-N-methylacetamide] |  | ≥ 70% | EC50 (BCL6 [1]): 10 to 50 nM; IC50 (BCL6 [2]): ≥ 100 nM
CC(=O)COc1cc2cc(Nc3nc(N4CCC(CN5CC(C6CN(c7ccc8c(c7)C(=O)N(C7CCC(=O)NC7=O)C8=O)C6)C5)CC4)ncc3Cl)ccc2n(C)c1=O (centres unmarked) [compound 199, 5-(1′-((1-(5-chloro-4-((1-methyl-2-oxo-3-(2-oxopropoxy)-1,2-dihydroquinolin-6-yl)amino)pyrimidin-2-yl)piperidin-4-yl)methyl)-[3,3′-biazetidin]-1-yl)-2-(2,6-dioxopiperidin-3-yl)isoindoline-1,3-dione] |  | 50 to 70% | EC50 (BCL6 [1]): < 10 nM; IC50 (BCL6 [2]): 10 to 50 nM
CNC(=O)COc1cc2cc(Nc3nc(N4CCC(O[C@H]5C[C@H](N6CCN(c7ccc8c(c7)C(=O)N(C7CCC(=O)NC7=O)C8=O)CC6)C5)CC4)ncc3Cl)ccc2n(C(C)C)c1=O (some centres unmarked) [compound 531, 2-({6-[(5-chloro-2-{4-[(1r,3r)-3-{4-[2-(2,6-dioxopiperidin-3-yl)-1,3-dioxo-2,3-dihydro-1H-isoindol-5-yl]piperazin-1-yl}cyclobutoxy]piperidin-1-yl}pyrimidin-4-yl)amino]-2-oxo-1-(propan-2-yl)-1,2-dihydroquinolin-3-yl}oxy)-N-methylacetamide] | > 8.00 | < 50% | 
CC(=O)COc1cc2cc(Nc3nc(N4CCN(CCCN5CCN(c6ccc7c(c6)C(=O)N(C6CCC(=O)NC6=O)C7=O)CC5)CC4)ncc3Cl)ccc2n(C)c1=O (centres unmarked) [compound 236, 5-(4-(3-(4-(5-chloro-4-((1-methyl-2-oxo-3-(2-oxopropoxy)-1,2-dihydroquinolin-6-yl)amino)pyrimidin-2-yl)piperazin-1-yl)propyl)piperazin-1-yl)-2-(2,6-dioxopiperidin-3-yl)isoindoline-1,3-dione] |  | 50 to 70% | EC50 (BCL6 [1]): < 10 nM; IC50 (BCL6 [2]): 10 to 50 nM

More lines, main results first:

pIC50 (BCL6 [1]) | Dmax (BCL6 [2]) | SMILES | further results
> 8.00 | 50 to 70% | CNC(=O)COc1cc2cc(Nc3nc(N4CCN(CC5CN(C6CCN(c7cccc8c7C(=O)N(C7CCC(=O)NC7=O)C8=O)CC6)C5)CC4)ncc3Cl)ccc2n(C(C)C)c1=O (centres unmarked) [compound 524, 2-({6-[(5-chloro-2-{4-[(1-{1-[2-(2,6-dioxopiperidin-3-yl)-1,3-dioxo-2,3-dihydro-1H-isoindol-4-yl]piperidin-4-yl}azetidin-3-yl)methyl]piperazin-1-yl}pyrimidin-4-yl)amino]-2-oxo-1-(propan-2-yl)-1,2-dihydroquinolin-3-yl}oxy)-N-methylacetamide] | 
7.30 to 8.00 | < 50% | CNC(=O)COc1cc2cc(Nc3nc(N4CCC(CN5CCC(c6cc(OC)cc(C(=O)NC7CCC(=O)NC7=O)c6F)CC5)CC4)ncc3Cl)ccc2n(C)c1=O (centres unmarked) [compound 467, 3-[1-({1-[5-chloro-4-({1-methyl-3-[(methylcarbamoyl)methoxy]-2-oxo-1,2-dihydroquinolin-6-yl}amino)pyrimidin-2-yl]piperidin-4-yl}methyl)piperidin-4-yl]-N-(2,6-dioxopiperidin-3-yl)-2-fluoro-5-methoxybenzamide] | 
> 8.00 | 50 to 70% | CNC(=O)COc1cc2cc(Nc3nc(N4CCC(C5(N6CCC(c7ccc8c(c7)C(=O)N(C7CCC(=O)NC7=O)C8=O)CC6)CC5)CC4)ncc3Cl)ccc2n(C(C)C)c1=O (centres unmarked) [compound 488, 2-{[6-({5-chloro-2-[4-(1-{4-[2-(2,6-dioxopiperidin-3-yl)-1,3-dioxo-2,3-dihydro-1H-isoindol-5-yl]piperidin-1-yl}cyclopropyl)piperidin-1-yl]pyrimidin-4-yl}amino)-2-oxo-1-(propan-2-yl)-1,2-dihydroquinolin-3-yl]oxy}-N-methylacetamide] | 
7.30 to 8.00 | ≥ 70% | CNC(=O)COc1cc2cc(Nc3nc(N4CCC(N5CCC6(CCN(c7ccc8c(c7)C(=O)N(C7CCC(=O)NC7=O)C8=O)C6)CC5)CC4)ncc3Cl)ccc2n(C(C)C)c1=O (centres unmarked) [compound 515, 2-[(6-{[5-chloro-2-(4-{2-[2-(2,6-dioxopiperidin-3-yl)-1,3-dioxo-2,3-dihydro-1H-isoindol-5-yl]-2,8-diazaspiro[4.5]decan-8-yl}piperidin-1-yl)pyrimidin-4-yl]amino}-2-oxo-1-(propan-2-yl)-1,2-dihydroquinolin-3-yl)oxy]-N-methylacetamide] | 
> 8.00 | 50 to 70% | CNC(=O)COc1cc2cc(Nc3nc(N4CCC(CN5CCC6(C5)CN(c5cccc7c5C(=O)N(C5CCC(=O)NC5=O)C7=O)C6)CC4)ncc3Cl)ccc2n(C(C)C)c1=O (centres unmarked) [compound 502, 2-{[6-({5-chloro-2-[4-({2-[2-(2,6-dioxopiperidin-3-yl)-1,3-dioxo-2,3-dihydro-1H-isoindol-4-yl]-2,6-diazaspiro[3.4]octan-6-yl}methyl)piperidin-1-yl]pyrimidin-4-yl}amino)-2-oxo-1-(propan-2-yl)-1,2-dihydroquinolin-3-yl]oxy}-N-methylacetamide] | 
7.00 to 7.30 | ≥ 70% | CNC(=O)COc1cc2cc(Nc3nc(N4CCC[C@H](COc5cccc6c5C(=O)N(C5CCC(=O)NC5=O)C6=O)C4)ncc3Cl)ccc2n(CCC2COC2)c1=O (stereo partly drawn) [compound 504, 2-{[6-({5-chloro-2-[(3S)-3-({[2-(2,6-dioxopiperidin-3-yl)-1,3-dioxo-2,3-dihydro-1H-isoindol-4-yl]oxy}methyl)piperidin-1-yl]pyrimidin-4-yl}amino)-1-[2-(oxetan-3-yl)ethyl]-2-oxo-1,2-dihydroquinolin-3-yl]oxy}-N-methylacetamide] | 
